For data set [1] the following is noted: diprotic, cited from earlier work.
The subject of data set [2] is Bacillus anthracis Sterne spores. Format: cell-based. The note with it: cotton/nylon fabric, 200, 80, or 40 ppm chlorine dioxide, 10 minutes.
Data set [3] has as its system Bacillus amyloliquefaciens spores. It counts as cell-based.

Take `N=C(N)S(=O)O` [FSA, Formamidinesulfinic acid]: the pKa1 in data set [1] (first dissociation) was at most 2. The pKa2 in data set [1] (second dissociation) is about 9.

As to `[O][Cl+][O-]` [chlorine dioxide], the “log reduction of B. anthracis Sterne spores” value in data set [2] was found to be 7.50 log reduction. Moreover, the “presence of B. amyloliquefaciens spores after treatment” value in data set [3] is reported as “significantly reduced but did not completely eliminate”.

Values taken from US9517934B2, “Process for the generation of chlorine dioxide” (The United States of America as Represented by the …, priority 2013, dated 2016).
